Where two headings read alike, the source gives them in different places. Marks after values point to notes of the source that are not given here.
How the values were obtained:
[1] = tested on: hippocampus of APP tg mice; test: Immunohistochemistry of hippocampus in immunized animals; type: in vivo; conditions: for activated microglia (CD11b) in hippocampus: immunization in CFA, APP tg mice; for CD3, number of cells per hippocampal region / CD11b, number of cells per hippocampal region / IFN-γ, number of cells per hippocampal region / IL-10, number of cells per hippocampal region / M-CSFR, number of cells per hippocampal region / TGF-β, number of cells per hippocampal region: Subcutaneous (CFA/P.T.)
Protocol: Immunohistology. The staining was performed utilizing the following markers: T-cells (CD3; BD Biosciences:553057), microglia/macrophages (CD11b; Serotec:MCA74G), (C-MFR; Cymbus Biotech:21080096), IFN-γ (Pharmingen: 559065), IL-10 (Pharmingen:559063) and TGF-β (RD:AB-20-PB). Anti-amyloid antibodies (R1282) were a gift of Dennis Seloke. Brain sections were further subject to Haematoxylin staining. Sections were evaluated in a blinded manner, and controls included use of isotype-matched mAbs as previously described. For each treatment the quantification was done from the hippocampal region of three different brain sections (the same region, Bregma −1.34, that were used for ThS staining). The results are expressed as the mean of the labeled cells for each marker.

[2] = tested on: J20 APP transgenic mice; type: in vivo; conditions: for occurrence of EAE: immunization in CFA + pertussis toxin
Protocol: Induction and clinical evaluation of EAE in APP+ mice. (B6D2)F1 or (B6XSJL)F1 APP+ (WT or B-cell deficient μMT) and non-tg littermates were immunized in the hind footpads with 100 μg MOG(35-55), PLP 139-151 or 100 μg β-amyloid peptide (1-40) in CFA. Immediately thereafter and again 48 hours later mice received an i.p. injection containing 150 ng of pertussis toxin in 0.2 ml PBS. Animals were monitored for symptoms of EAE beginning 7 days after immunization and scored as follows: 0, no disease; 1, tail paralysis; 2, hind limb weakness; 3, hind limb paralysis; 4, hind limb plus forelimb paralysis; and 5, moribund.
Nasal vaccination. Glatiramer acetate: 25 μg was given on days 1, 2, 4 and 5 the first week followed by a weekly boost for six weeks. IVX-908: 1 μg/mouse was given on days 1 and 5 the first week followed by a weekly boost for six weeks. BSA+IVX-908: 25 μg of BSA plus 1 ug IVX-908 were given on days 1 and 5 the first week, and 25 μg of BSA alone was given on days 2 and 4, followed by six weekly boosts of the combination of BSA+IVX-908. GA+IVX-908: 25 μg of GA plus 1 μg IVX-908 were given on days 1 and 5 the first week, and 25 μg of GA alone was given on days 2 and 4, followed by six weekly boosts of the combination of GA+IVX-908.

[3] = tested on: Aβ; test: Anti-Aβ antibody level (IgG, OD) in immunized J20 APP transgenic mice; type: in vivo; conditions: for Anti-Aβ Antibody: level of OD at titer of 1:500 IgG
Protocol: Antibody levels were measured against Aβ in animals immunized with MOG or PLP to determine if there was cross reactivity with Aβ and Aβ antibody titers as compared to those from animals immunized with Aβ. […] To definitively establish that antibodies were not playing a role, 16-month-old J20 mice bred to μMT B-cell deficient mice were immunized with MOG 35-55 in CFA followed by administration of Pertussis toxin.

[4] = tested on: Aβ fibrils; type: in vivo, mice; conditions: for % Area of thioflavin positive Aβ plaques (hippocampus): subcutaneous immunization in CFA + pertussis toxin
Protocol: (§1) Amyloid quantification. To quantify amyloid burden, the right hemisphere was extracted in 5.0 M guanidinium-chloride (pH 8) for 3 hours at room temperature. Dilutions were used to measure levels of insoluble (amyloid-associated) […] and Aβ42 by sandwich enzyme-linked immunosorbent assays (ELISA). To measure Aβ fibrils, the left hemisphere was fixed in 4% Brain O/N followed by 4.5% sucrose for 4 hours then 20% Sucrose for O/N at 4° C. Brains were frozen in the presence of OCT paraformaldehyde, cut to 14-μm longitudinal sections used for immunohistological staining and amyloid fibril quantification. Well-defined hippocampal regions (Bregma −1.34), were selected for quantification of the amount of amyloid fibril in plaques using thioflavin-S staining. Images (magnification ×20) from these sections were collected from a 3CCD color video camera and analyzed with appropriate software (NIH; Imaging Research). The amount of amyloid fibril was expressed as a percentage per mm^2 hippocampal region as measured by the software.

[5] = tested on: Aβ40 and Aβ42; test: Total brain Aβ by sandwich ELISA, J20 APP transgenic mice; type: in vivo; conditions: for Total brain Aβ: subcutaneous immunization in CFA + pertussis toxin
Protocol: FIG. 1: Effect of subcutaneous immunization on total Aβ levels in the brain. To quantify amyloid burden, the right hemisphere was extracted in 5.0 M guanidinium-chloride (pH 8) for 3 hours at room temperature. Dilutions were used to measure levels of Aβ40 and Aβ42 by sandwich enzyme-linked immunosorbent assays (ELISA).
as §1, with “To measure Aβ fibrils, the left hemisphere was fixed in 4% Brain O/N followed by 4.5% sucrose for 4 hours then 20% Sucrose for O/N at 4° C.” left out, “Well-defined hippocampal regions (Bregma −1.34), were selected for quantification of the amount of amyloid fibril in plaques using thioflavin-S staining.” left out

[6] = subcutaneous immunization in CFA + pertussis toxin, J20 APP transgenic mice
[7] = subcutaneous (footpad) immunization in CFA + pertussis toxin, J20 APP transgenic mice, scale 0-5
[8] = immunization in CFA + pertussis toxin, APP transgenic mice
[9] = μMT B-cell deficient J20 APP+ mice
[10] = μMT B-cell deficient APP+ mice, CFA + Pertussis toxin

Substance	activated microglia (CD11b) in hippocampus [1] [cells/hippocampus region]	occurrence of EAE [2]	Anti-Aβ Antibody [3, 6] [OD]	CD3, number of cells per hippocampal region [1]	CD11b, number of cells per hippocampal region [1]	IFN-γ, number of cells per hippocampal region [1]	IL-10, number of cells per hippocampal region [1]	M-CSFR, number of cells per hippocampal region [1]	TGF-β, number of cells per hippocampal region [1]	% Area of thioflavin positive Aβ plaques (hippocampus) ([4]; J20 APP transgenic mice)	Total brain Aβ ([5]; J20 APP transgenic mice)	EAE score [2, 7]	other results
bovine serum albumin [BSA/CFA]	76±17	no EAE was observed											
human β-amyloid peptide (Aβ amino acids 1-40)	106±27	no EAE was observed	0.75	10 ± 2 cells per hippocampal region	106 ± 27 cells per hippocampal region	9 ± 2 cells per hippocampal region	44 ± 5 cells per hippocampal region	34 ± 11 cells per hippocampal region	41 ± 5 cells per hippocampal region	0.83 ± 0.3 ^a %	60.8 ± 16 ^a ng/ml	0	
myelin oligodendrocyte glycoprotein (MOG) peptide (amino acids 35-55) (MEVGWYRSPFSRVVHLYRNGK; UniProt Q61885 63-83, looked up, fragment)	349±34.3		0	142 ± 19 ^iv cells per hippocampal region	349 ± 34.3 ^iv cells per hippocampal region	109 ± 7 ^iv cells per hippocampal region	21 ± 9 ^ii cells per hippocampal region	79 ± 5 ^i cells per hippocampal region	20 ± 5 ^iii cells per hippocampal region	0.22 ± 0.1 ^b %	8.4 ± 2.1 ^b ng/ml	2.5 ± 0.8	anti-Aβ antibodies ([3]; MOG immunization): not detected; Anti-Aβ Antibody ([3]; subcutaneous, μMT B-cell deficient J20 APP+ mice): 0 OD; CD3, number of cells per hippocampal region ([1]; B-deficient mice): 195 ± 12 ^iv cells per hippocampal region; CD11b, number of cells per hippocampal region ([1]; B-deficient mice): 462 ± 23 ^iv cells per hippocampal region; IFN-γ, number of cells per hippocampal region ([1]; B-deficient mice): 119 ± 18 ^iv cells per hippocampal region; IL-10, number of cells per hippocampal region ([1]; B-deficient mice): 25 ± 5 ^i cells per hippocampal region; M-CSFR, number of cells per hippocampal region ([1]; B-deficient mice): 77 ± 6 ^i cells per hippocampal region; TGF-β, number of cells per hippocampal region ([1]; B-deficient mice): 22 ± 8 ^ii cells per hippocampal region; reduction of staining for Aβ fibril in the hippocampus (thioflavin S) compared to mice immunized with Aβ 1-40 [4, 8]: 73%; reduction of staining for Aβ fibril in the hippocampus (thioflavin S) vs. controls [4, 8]: 92%; % Area of thioflavin positive Aβ plaques (hippocampus) [4, 9]: 0.27 ± 0.04 ^b %; reduction in amyloid compared to control by ThS staining [4, 10]: 90%; reduction of total brain Aβ (ELISA) / total amyloid load vs. control [5, 8]: 94%; reduction of total brain Aβ (ELISA) compared to Aβ 1-40 immunized mice [5, 8]: 86%; Total brain Aβ [5, 9]: 11.4 ± 2.7 ^b ng/ml; reduction in amyloid compared to control by ELISA for total brain amyloid [5, 10]: 90%; EAE score ([2]; subcutaneous immunization in CFA + pertussis toxin, μMT B-cell deficient J20 APP+ mice): 2.7 ± 0.4

From US20060229233A1, “Compositions and methods for treating neurological disorders” (ID Biomedical Corporation, priority 2004, published 2006)
